Counter-ions that a name gives are not always drawn.
Tests used:
[1] = target: T1, HGSNAT (heparan sulfate acetyl-CoA: α-glucosaminide N-acetyltransferase), HGSNAT-TAP (Homo sapiens, UniProt Q68CP4); assay: fluorogenic N-acetyltransferase assay, Lineweaver-Burk plot, partially purified (streptavidin resin) enzyme; type: biochemical; settings: acetyl-CoA co-substrate, 4MU-βGlcN 0.05-2.0 mM, McIlvain buffer pH 5.7, 37°C, 18 h
T1 construct: transient expression in COS-7 cells; homogenate or streptavidin-resin partially purified; ~77 kDa
T1 sequence (Q68CP4 1-663): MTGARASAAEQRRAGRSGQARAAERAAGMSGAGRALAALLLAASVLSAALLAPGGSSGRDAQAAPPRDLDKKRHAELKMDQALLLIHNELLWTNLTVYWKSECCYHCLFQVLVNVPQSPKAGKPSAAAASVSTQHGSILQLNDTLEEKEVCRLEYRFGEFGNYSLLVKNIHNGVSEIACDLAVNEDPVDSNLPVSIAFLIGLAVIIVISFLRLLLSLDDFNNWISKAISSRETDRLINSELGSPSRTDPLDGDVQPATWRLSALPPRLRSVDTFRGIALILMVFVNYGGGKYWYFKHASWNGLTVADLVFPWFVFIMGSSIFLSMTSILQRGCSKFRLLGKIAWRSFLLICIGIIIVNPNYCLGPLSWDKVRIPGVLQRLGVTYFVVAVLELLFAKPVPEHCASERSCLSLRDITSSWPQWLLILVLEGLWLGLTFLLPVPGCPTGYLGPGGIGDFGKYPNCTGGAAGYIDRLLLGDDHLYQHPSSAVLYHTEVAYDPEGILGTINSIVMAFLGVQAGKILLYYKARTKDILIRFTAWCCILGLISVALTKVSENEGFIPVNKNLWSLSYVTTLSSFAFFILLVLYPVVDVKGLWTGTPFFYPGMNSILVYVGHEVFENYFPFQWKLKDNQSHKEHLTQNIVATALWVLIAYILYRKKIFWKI

[2] = target: T1, HGSNAT (heparan sulfate acetyl-CoA: α-glucosaminide N-acetyltransferase), HGSNAT-TAP; assay: fluorogenic N-acetyltransferase assay, Dixon plot, homogenate of transfected COS-7 cells; type: biochemical; settings: competitive; 4MU-βGlcN 0.0375-1.5 mM, 2 mM acetyl-CoA, McIlvain buffer pH 5.7, 37°C, 3 h

| Compound | KM [1] | Ki [2] |
| --- | --- | --- |
| Cc1cc(=O)oc2cc(O[C@@H]3O[C@H](CO)[C@@H](O)[C@H](O)[C@H]3N)ccc12 [4MU-βGlcN, 4-methylumbelliferyl β-D-glucosaminide] | Lineweaver-Burk plot of substrate dependance for partially purified HGSNAT wild-type and P237Q and V481L mutants |  |
| N[C@H]1C(O)O[C@H](CO)[C@@H](O)[C@@H]1O (stereo partly drawn) [D-(+)-glucosamine hydrochloride] |  | 280 µM |
